Measured values published in ChEMBL document CHEMBL3632505, “Forsythoneosides A-D, Neuroprotective Phenethanoid and Flavone Glycoside Heterodimers from the Fruits of Forsythia suspensa” (2015).

Experiments:
PC-12 [1] = test: Neuroprotective activity against rotenone-induced cell damage in rat PC12 cells assessed as cell viability at 10 uM after 48 hrs by MTT assay (reference value: 53.9 +/- 7.1%); format: functional; details: for viability at 10 µM: Rattus norvegicus, PC-12, 48 h, read-out: Activity
PC-12 [2] = test: Neuroprotective activity against rotenone-induced cell damage in rat PC12 cells assessed as cell viability at 1 uM after 48 hrs by MTT assay (reference value: 53.9 +/- 7.1%); format: functional; details: for viability at 1 µM: Rattus norvegicus, PC-12, 48 h, read-out: Activity
PC-12 [3] = test: Neuroprotective activity against rotenone-induced cell damage in rat PC12 cells assessed as cell viability at 0.1 uM after 48 hrs by MTT assay (reference value: 53.9 +/- 7.1%); format: functional; details: for viability at 0.1 µM: Rattus norvegicus, PC-12, 48 h, read-out: Activity
PC-12 [4] = test: Neuroprotective activity against rotenone-induced cell damage in rat PC12 cells assessed as increase in cell viability after 48 hrs by MTT assay; format: functional, cell-based

Row | Compound | viability at 10 µM (PC-12 [1]) [%] | viability at 1 µM (PC-12 [2]) [%] | viability at 0.1 µM (PC-12 [3]) [%] | Activity (PC-12 [4]) | other results
1 | C[C@@H]1O[C@@H](OC[C@H]2O[C@@H](OCCc3ccc(O)c(O)c3)[C@H](O)[C@@H](O)[C@@H]2OC(=O)/C=C/c2ccc(O)c(O)c2)[C@H](O)[C@H](O)[C@H]1O [FORSYTHIASIDE] | 60.4 | – | – | – | –
2 | C[C@@H]1O[C@@H](OC[C@H]2O[C@@H](Oc3c(-c4ccc(O)c(O)c4)oc4c5c(cc(O)c4c3=O)Oc3cc(O)c(O)cc3[C@H]5CO[C@@H]3O[C@H](CO[C@@H]4O[C@@H](C)[C@H](O)[C@@H](O)[C@H]4O)[C@@H](OC(=O)/C=C/c4ccc(O)c(O)c4)[C@H](O)[C@H]3O)[C@H](O)[C@@H](O)[C@@H]2O)[C@H](O)[C@H](O)[C@H]1O | 81.1 | 59.2 | 55.8 | Dose-dependent effect | –
3 | C[C@@H]1O[C@@H](OC[C@H]2O[C@@H](Oc3c(-c4ccc(O)c(O)c4)oc4c(-c5cc(O)c(O)cc5CCO[C@@H]5O[C@H](CO[C@@H]6O[C@@H](C)[C@H](O)[C@@H](O)[C@H]6O)[C@@H](OC(=O)/C=C/c6ccc(O)c(O)c6)[C@H](O)[C@H]5O)c(O)cc(O)c4c3=O)[C@H](O)[C@@H](O)[C@@H]2O)[C@H](O)[C@H](O)[C@H]1O (stereo in doubt; 4) [listing 1 of 2 here] | 96.2 | – | – | – | Activity (PC-12 [2]): 75.5%; Activity (PC-12 [3]): 67.9%
4 | C[C@@H]1O[C@@H](OC[C@H]2O[C@@H](Oc3c(-c4ccc(O)c(O)c4)oc4cc(O)cc(O)c4c3=O)[C@H](O)[C@@H](O)[C@@H]2O)[C@H](O)[C@H](O)[C@H]1O [RUTIN] | 67.9 | – | – | – | –
5 | O=C(/C=C/c1ccc(O)c(O)c1)O[C@H]1[C@H](O)[C@@H](O)[C@H](OCCc2ccc(O)c(O)c2)O[C@@H]1CO[C@@H]1OC[C@@H](O)[C@H](O)[C@H]1O | 56.2 | – | – | – | –
6 | C[C@@H]1O[C@@H](OC[C@H]2O[C@@H](Oc3c(-c4ccc(O)c(O)c4)oc4c5c(cc(O)c4c3=O)Oc3cc(O)c(O)cc3[C@@H]5CO[C@@H]3O[C@H](CO[C@@H]4O[C@@H](C)[C@H](O)[C@@H](O)[C@H]4O)[C@@H](OC(=O)/C=C/c4ccc(O)c(O)c4)[C@H](O)[C@H]3O)[C@H](O)[C@@H](O)[C@@H]2O)[C@H](O)[C@H](O)[C@H]1O | 91.2 | 75 | 70.1 | Dose-dependent effect | –
7 | C[C@@H]1O[C@@H](OC[C@H]2O[C@@H](Oc3c(-c4ccc(O)c(O)c4)oc4c(-c5cc(O)c(O)cc5CCO[C@@H]5O[C@H](CO[C@@H]6O[C@@H](C)[C@H](O)[C@@H](O)[C@H]6O)[C@@H](OC(=O)/C=C/c6ccc(O)c(O)c6)[C@H](O)[C@H]5O)c(O)cc(O)c4c3=O)[C@H](O)[C@@H](O)[C@@H]2O)[C@H](O)[C@H](O)[C@H]1O (stereo in doubt; 3) [listing 1 of 2 here] | – | – | – | Dose-dependent effect | –
8 | COC1=C(OC)C(=O)C(C/C=C(\C)CC/C=C(\C)CC/C=C(\C)CC/C=C(\C)CC/C=C(\C)CC/C=C(\C)CC/C=C(\C)CC/C=C(\C)CC/C=C(\C)CCC=C(C)C)=C(C)C1=O [UBIDECARENONE] | 59 | – | – | – | –
9 | C[C@@H]1O[C@@H](OC[C@H]2O[C@@H](Oc3c(-c4ccc(O)c(O)c4)oc4c(-c5cc(O)c(O)cc5CCO[C@@H]5O[C@H](CO[C@@H]6O[C@@H](C)[C@H](O)[C@@H](O)[C@H]6O)[C@@H](OC(=O)/C=C/c6ccc(O)c(O)c6)[C@H](O)[C@H]5O)c(O)cc(O)c4c3=O)[C@H](O)[C@@H](O)[C@@H]2O)[C@H](O)[C@H](O)[C@H]1O (stereo in doubt; 3) [listing 2 of 2 here] | – | 64 | 54.3 | – | Activity (PC-12 [1]): 93.2%
10 | C[C@@H]1O[C@@H](OC[C@H]2O[C@@H](Oc3c(-c4ccc(O)c(O)c4)oc4c(-c5cc(O)c(O)cc5CCO[C@@H]5O[C@H](CO[C@@H]6O[C@@H](C)[C@H](O)[C@@H](O)[C@H]6O)[C@@H](OC(=O)/C=C/c6ccc(O)c(O)c6)[C@H](O)[C@H]5O)c(O)cc(O)c4c3=O)[C@H](O)[C@@H](O)[C@@H]2O)[C@H](O)[C@H](O)[C@H]1O (stereo in doubt; 4) [listing 2 of 2 here] | – | – | – | Dose-dependent effect | –
